Columns and labels:
[1] = tested on: CT-26 tumor; assay: Tumor growth inhibition in the CT-26 syngeneic mouse tumor model; assay type: in vivo, mouse (female Balb/c); conditions: CT-26 tumor bearing Balb/c mice, vs Vehicle (H2O)
Description: The purpose of this study is to determine the effect of Cmd 1 and Cmd 32 on growth inhibition (efficacy) in CT-26 tumor bearing mice when administered once daily by oral gavage as single agents or in combination. Cmd 1 and Cmd 32 are small molecule immune modulating agents for treatment of cancer.
Female Balb/c Mice from Charles River Laboratories −20-25 grams; 9-10 weeks old; Strain code: 028.
CT-26 cells were expanded in T225 tissue culture treated flasks in RPMI-1640 medium supplemented with 10% FBS ([…]) and cultured at 37° C. (5% CO2) in a humidified cell culture incubator. Cells were passaged every 3-4 days by detachment with 1× Trypsin/EDTA. Cells were re-plated on 5 flasks in complete RPMI1640 medium.
On the day of implantation, the cells were collected from flasks washed with phosphate buffer solution and detached with Trypsin/EDTA and washed once in phosphate buffer solution with no additives. Cells were resuspended in serum free DMEM at a final concentration of 1×10^6 cells/mL and kept on ice until administered to mice. The cells were kept on ice for no more than 1 hour before administration to the mice. […]
Animals were monitored until tumors were palpable and were then measured until tumor volume reached 100-200 mm^3. […] Tumor cells were counted on a MACSQuant Analyzer with propidium iodide (PI) for live/dead discrimination. […]

[2] = tested on: MC38 tumor; assay: Tumor growth inhibition in the MC38 syngenic model; assay type: in vivo, mouse (female C57BL/6); conditions: MC38 SC model, oral once a day
Description: Female C57BL/6 mice bred in-house were used in this efficacy study in the MC38 model. Animals were 6-8 weeks-old and weighed between 13 and 21 g. Animals were marked individually with tail marks and kept in cages that were identified by a cage card showing the study code, date of experimentation, sex and number of animals. During the experiment, the animals were weighed daily.
Tumor cells were cultured according to the procedure explained in the literature (U.S. Pat. No. 9,333,256; A. Filatenkov et al., J. Immunol., 2009. 183(11): 7196-7203). Tumor cells were ensured Mycoplasma free by performing Mycoplasma detection with MYCOALERT®Mycoplasma Detection Kit (Lonza) in accordance with manufacturer instructions. MYCOALERT® Assay is a selective biochemical test that exploits the activity of mycoplasmal enzymes. Viable Mycoplasma would be lysed and enzymes react with MYCOALERT® substrate, catalyzing the conversion of ADP to ATP. […]
MC38 cells were cultured according to the information in published literature (A. Filatenkov et al., J. Immunol., 2009. 183(11): 7196-7203; S. F. Ngiow et al., Cancer Res., 2011. 71(10): 3540-3551). […] Tumor volumes were measured 3 times a week, body weight and clinical signs were monitored every day. […]

[3] = Mortality, body weight and clinical signs in the MC38 study; assay type: in vivo; conditions: Cmd 32 10 mg/kg group, one animal, no gross pathology, not reliably attributed to treatment
Description: Mortality/morbidity of animals, body weight loss and clinical symptoms were monitored. During study period all moribund animals were sacrificed and animals losing >20% of their body weight were also sacrificed. Body weights were recorded every day and clinical signs of toxicity were recorded once a day. Survival was recorded every day. A 15-20% loss of the body weight and/or animal death was considered as the criteria for toxicity. Behavioural, nesting and gross observations for clinical signs were made at least once every day during the course of the study.
At the end of the study (30 min after the last dose), animals were examined externally for possible abnormalities, weighed and sacrificed by CO2 asphyxiation.

[4] = tested on: intratumoral T cell populations; assay: Cell-surface marker assays of intratumoral T cell populations in the CT-26 model; assay type: in vivo, mouse (female Balb/c); conditions: Cmd 32 50 mg/kg, CT-26 tumors
Description: Animals were monitored until tumors were palpable and were then measured until tumor volume reached 100-200 mm^3. They were then randomized into groups using LabCat software and dosing started the following day. Blood was collected in EDTA tubes and kept on ice. Tumor were collected in 15 mL tubes with RPMI-1640 w/10% FBS on ice. Tumors proceeded to the Miltenyi Biotec mouse tumor dissociation kit. Tumor cells were counted on a MACSQuant Analyzer with propidium iodide (PI) for live/dead discrimination. Percent tumor growth inhibition on Day 20 is tabulated below (Table 11). Tumor volume of individual animals on day 20 and the tumor growth over the course of the study are represented in FIG. 1A and FIG. 1B respectively. Cell-surface marker assays were used to identify intratumoral T cell populations and calculate CD8+ (CTL; cytotoxic T-cell): Treg (regulatory T cell) ratio.

Row | Structure (SMILES) | % TGI (Day 20), percent tumor growth inhibition ([1]; Cmd 1 100 mg/kg QD PO) | Percent tumor growth inhibition (TGI) ([2]; Cmd 1 10 mg/kg, Cmd 32 0 mg/kg) | % TGI (Day 20), percent tumor growth inhibition ([1]; Cmd 32 50 mg/kg QD PO) | Mortality [3] | Percent tumor growth inhibition (TGI) ([2]; Cmd 32 10 mg/kg, Cmd 1 0 mg/kg) | Tumor granzyme-B+/PD-1+/Tim-3+ T cells (percent of CD8) ([4]; FIG. 2B) | Tumor granzyme-B+/PD-1+/Tim-3- T cells (percent of CD8) ([4]; FIG. 2C)
1 | CC(O)[C@H](NC(=O)N[C@@H](CC(N)=O)c1nc([C@@H](N)CO)no1)C(=O)O (stereo in doubt) [Cmd 1] | 23% | 25% |  |  |  |  | 
2 | CC(O)[C@H](NC(=O)N[C@@H](CCC(=O)O)c1nc([C@@H](N)CO)no1)C(=O)O (stereo in doubt) [Cmd 32] |  |  | 24% | found dead | 10% | increase | concomitant decrease
